Data as given in patent US7691856B2, “Thiadiazoledioxides and thiadiazoleoxides as CXC- and CC-chemokine receptor ligands” (Schering Corporation, priority 2002, dated 2010).

Tests used:
hCXCR1 = molecular target: T1, hCXCR1 (Homo sapiens, UniProt P25024); test: CXCR1 SPA assay ([125I]-IL-8 binding, hCXCR1-CHO membranes); details: [125I]-IL-8 binding to hCXCR1-CHO membranes
T1 construct: purchased Biosignal / Biosignal Packard; alternatively Euroscreen; host or cells: CHO cells over-expressing hCXCR1 (membranes)
T1 sequence (P25024 1-350): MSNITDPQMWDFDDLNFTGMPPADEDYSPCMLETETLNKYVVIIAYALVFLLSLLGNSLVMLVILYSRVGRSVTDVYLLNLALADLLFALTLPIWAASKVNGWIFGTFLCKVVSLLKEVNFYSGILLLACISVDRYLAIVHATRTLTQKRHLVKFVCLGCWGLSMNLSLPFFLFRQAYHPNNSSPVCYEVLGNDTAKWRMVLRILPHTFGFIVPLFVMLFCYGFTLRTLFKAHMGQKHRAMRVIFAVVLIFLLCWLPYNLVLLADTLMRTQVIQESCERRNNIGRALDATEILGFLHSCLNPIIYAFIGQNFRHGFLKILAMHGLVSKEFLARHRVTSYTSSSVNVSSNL
Description: For each well of a 96 well plate, a reaction mixture of 10 μg hCXCR1-CHO overexpressing membranes (Biosignal) and 200 μg/well WGA-SPA beads (Amersham) in 100 μl was prepared in CXCR1 assay buffer (25 mM HEPES, pH 7.8, 2 mM CaCl2, 1 mM MgCl2, 125 mM NaCl, 0.1% BSA) (Sigma). A 0.4 nM stock of ligand, [125I]-IL-8 (NEN) was prepared in the CXCR1 assay buffer. 20× stock solutions of test compounds were prepared in DMSO (Sigma). A 6× stock solution of IL-8 (R&D) was prepared in […] assay buffer. The above solutions were added to a 96-well assay plate (PerkinElmer) as follows: 10 μl test compound or DMSO, 40 μl CXCR1 assay buffer or IL-8 stock, 100 μl of reaction mixture, 50 μl of ligand stock (Final [Ligand]=0.1 nM). The assay plates were shaken for 5 minutes on plate shaker, then incubated for 8 hours before cpm/well were determined in Microbeta Trilux counter (PerkinElmer). % Inhibition of Total binding-NSB (250 nM IL-8) was determined for IC50 values.
Alternative CXCR1 SPA Assay
Protocol using CXCR1-expressing membranes from Biosignal Packard
For each 50 μl reaction, a working stock of 0.25 μg/μl hCXCR1-CHO over-expressing membranes with a specific activity of 0.05 pmol/mg (Biosignal Packard) and 25 μg/μl WGA-SPA beads (Perkin Elmer Life Sciences) was prepared in CXCR1 assay buffer (25 mM HEPES, pH 7.8, 0.1 mM CaCl2, 1 mM MgCl2, 100 mM NaCl) (Sigma). […] The assay plates were incubated for 4 hours before cpm/well were determined in a Microbeta Trilux counter (Perkin Elmer Life Sciences). IC50 values were quantified using nonlinear regression analysis in GraphPad Prism. […]
For each 50 μl reaction, a working stock of 0.025 μg/μl hCXCR1-CHO over-expressing membranes with a specific activity of 3.47 pmol/mg (Euroscreen) and 5 μg/μl WGA-SPA beads (Perkin Elmer Life Sciences) was prepared in CXCR1 assay buffer (25 mM HEPES, pH 7.8, 2.0 mM CaCl2, 1 mM MgCl2, 125 mM NaCl) (Sigma). […] The assay plates were incubated for 4 hours before cpm/well were determined in a Microbeta Trilux counter (Perkin Elmer Life Sciences). […]

hCXCR2 = molecular target: T2, hCXCR2 (Homo sapiens, UniProt P25025); test: CXCR2 SPA assay ([125I]-IL-8 binding, hCXCR2-CHO membranes); details: [125I]-IL-8 binding to hCXCR2-CHO membranes
T2 construct: purchased Biosignal / Biosignal Packard; host or cells: CHO cells over-expressing hCXCR2 (membranes)
T2 sequence (P25025 1-360): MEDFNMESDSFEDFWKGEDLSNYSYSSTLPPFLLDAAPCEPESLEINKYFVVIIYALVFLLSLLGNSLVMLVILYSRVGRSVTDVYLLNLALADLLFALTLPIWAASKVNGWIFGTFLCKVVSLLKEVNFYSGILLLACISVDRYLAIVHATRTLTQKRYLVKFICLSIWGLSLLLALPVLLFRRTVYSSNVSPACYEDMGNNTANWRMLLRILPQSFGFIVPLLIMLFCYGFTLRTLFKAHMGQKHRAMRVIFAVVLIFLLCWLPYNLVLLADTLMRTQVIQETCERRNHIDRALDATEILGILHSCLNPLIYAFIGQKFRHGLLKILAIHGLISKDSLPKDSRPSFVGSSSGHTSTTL
Description: For each well of a 96 well plate, a reaction mixture of 4 μg hCXCR2-CHO overexpressing membranes (Biosignal) and 200 μg/well WGA-SPA beads (Amersham) in 100 μl was prepared in CXCR2 assay buffer (25 mM HEPES, pH 7.4, 2 mM CaCl2, 1 mM MgCl2). A 0.4 nM stock of ligand, [125I]-IL-8 (NEN), was prepared in the CXCR2 assay buffer. 20× stock solutions of test compounds were prepared in DMSO (Sigma). A 6× stock solution of GRO-α (R&D) was prepared in CXCR2 assay buffer. The above solutions were added to a 96-well assay plate (PerkinElmer or Corning) as follows: 10 μl test compound or DMSO, 40 ul CXCR2 assay buffer or GRO-α stock, 100 μl of reaction mixture, 50 μl of ligand stock (Final [Ligand]=0.1 nM). When 40× stock solutions of test compounds in DMSO were prepared, then the above protocol was used except instead 5 μl test compound or DMSO and 45 μl CXCR2 assay buffer were used. […]
For each 50 μl reaction, a working stock of 0.031 μg/μl hCXCR2-CHO over-expressing membranes with a specific activity of 0.4 pmol/mg (Biosignal Packard) and 2.5 μg/μl WGA-SPA beads (Perkin Elmer Life Sciences) was prepared in CXCR2 assay buffer (25 mM HEPES, pH 7.4, 2.0 mM CaCl2, 1 mM MgCl2) (Sigma). […] The assay plates were incubated for 2 hours before cpm/well were determined in a Microbeta Trilux counter (Perkin Elmer Life Sciences). IC50 values were quantified using nonlinear regression analysis in GraphPad Prism. […]
For each 200 μl reaction, a working stock of 0.02 μg/μl hCXCR2-CHO over-expressing membranes with a specific activity of 0.6 pmol/mg (Biosignal Packard) and 2 μg/μl WGA-SPA beads (Perkin Elmer Life Sciences) was prepared in CXCR2 assay buffer (25 mM HEPES, pH 7.4, 2.0 mM CaCl2, 1 mM MgCl2) (Sigma). […] The assay plates were incubated for 2 hours before cpm/well were determined in a Microbeta Trilux counter (Perkin Elmer Life Sciences). IC50 values were quantified using nonlinear regression analysis in GraphPad Prism.

CCR7 = molecular target: T3, CCR7 (Homo sapiens, UniProt P32248); test: CCR7 [35S]GTPγS exchange assay (SPA, Ba/F3-CCR7 membranes)
T3 sequence (P32248 25-378): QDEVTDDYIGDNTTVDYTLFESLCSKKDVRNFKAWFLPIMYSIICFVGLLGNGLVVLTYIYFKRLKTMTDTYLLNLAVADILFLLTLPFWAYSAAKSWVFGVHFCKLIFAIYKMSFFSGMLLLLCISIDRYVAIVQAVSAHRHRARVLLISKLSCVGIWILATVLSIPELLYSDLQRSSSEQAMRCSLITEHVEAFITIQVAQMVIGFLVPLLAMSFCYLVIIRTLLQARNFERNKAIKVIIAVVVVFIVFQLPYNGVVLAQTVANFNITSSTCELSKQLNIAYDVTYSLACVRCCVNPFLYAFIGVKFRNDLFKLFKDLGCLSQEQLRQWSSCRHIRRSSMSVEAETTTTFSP
Description: CCR7 [^35S]GTPγS Exchange Assay.
The exchange of guanosine 5′-[γ-^35S]triphospate ([^35S]GTPγS, triethylammonium salt; specific activity 1250 Ci/mmol; NEN Boston, Mass.) was measured using a scintillation proximity assay (SPA) as previously described (Cox, et. al., Mol. Pharmacol., 59, 2001, 707-15). For each assay point, 2 μg of membrane was preincubated for 30 min at room temperature with 200 μg wheat germ agglutinin-coated SPA beads (WGA-SPA; Amersham, Arlington Heights, Ill.) in SPA binding buffer (50 mM HEPES, 10 mM MgCl2, 1 mM EDTA, 100 mM NaCl, 0.1% BSA, pH 7.6). The beads and membranes were transferred to a 96-well Isoplate (Wallac, Gaithersburg, Md.) and incubated with 10 μM guanosine 5′-diphosphate (GDP) in the presence or absence of 2 nM MIP-30 and/or compounds for 60 min at room temperature. The incubation continued for another 60 min. following the addition of 0.1 nM [^35S]GTPγS. Membrane-bound [^35S]GTPγS was measured using a 1450 Microbeta Trilux counter (Wallac, Gaithersburg, Md.).

| Ki (hCXCR1) [nM] | Ki (hCXCR2) [nM] | EC50 (CCR7) [nM] | Structure (SMILES) |
| --- | --- | --- | --- |
| 4 | 7 | – | CC(C)c1coc([C@H](NC2=NS(=O)(=O)N=C2Nc2ccc(Br)c(C(=O)N(C)C)c2O)C(C)(C)C)c1 [Example 56] |
| 123 | 3.5 | – | CC[C@@H](Nc1n[s+]([O-])nc1Nc1cccc(C(=O)N(C)C)c1O)c1cc(C(C)C)co1 (stereo partly drawn) [Example 201.1] |
| 50 | 2.7 | – | Cc1cc([C@H](Nc2n[s+]([O-])nc2Nc2cccc(C(=O)N(C)C)c2O)C(C)C)oc1C (stereo partly drawn) [Example 201.9] |
| – | – | 13 | CCN(CC)S(=O)(=O)c1scc(NC2=NS(=O)(=O)N=C2N[C@@H](c2ccc(C)o2)C(C)(C)C)c1O [Example 2065] |
| – | – | 16 | Cc1ccc([C@H](NC2=NS(=O)(=O)N=C2Nc2csc(S(=O)(=O)N3CCOCC3)c2O)C(C)(C)C)o1 [Example 2066] |
| – | – | 12 | CCC(C)(C)[C@@H](NC1=NS(=O)(=O)N=C1Nc1cccc(C(=O)N(C)C)c1O)c1ccc(C)o1 [Example 2106] |
